Data taken from patent US20050075375A1 (priority 2003, published 2005).
Read-outs that look alike come from different tables or passages of the source.

Test system: monocistronic NK5.1 HCV replicon in Huh7 cells
Test: HCV replicon assay, monocistronic replicon cell line
Assay type: cell-based, hepatitis C virus
Details: Hepatitis C virus, read-out: Mono EC50 Median
How it was run: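 Huh7 cells carrying the monocistronic NK5.1 replicon, seeded 24 h before dosing, were exposed to six-point half-log compound series (0.6% DMSO) for 3 days at 37 °C. Replicon RNA was quantified by TaqMan RT-PCR, normalised to GAPDH and compared with DMSO controls to derive EC50.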

[1] = Huh-7, 72 h, Table 1, monocistronic replicon in Huh7 cells, 3 days incubation, HCV RNA/GAPDH RNA by TaqMan RT-PCR
[2] = Huh-7, 72 h, table T3 (compounds 471-640), monocistronic replicon in Huh7 cells, 3 days incubation, HCV RNA/GAPDH RNA by TaqMan RT-PCR
[3] = Huh-7, monocistronic NK5.1 HCV replicon in Huh7 cells, median value

Row | SMILES | EC50 [1] [µM] | EC50 [2] [µM] | EC50 [3] [µM]
1 | COc1ccc(-n2nc(-c3ccccc3O)cc2C)cc1 [Compound 14, 2-[1-(4-Methoxy-phenyl)-5-methyl-1H-pyrazol-3-yl]-phenol] | 11 |  | 
2 | Oc1ccc(Br)cc1-c1nc(-c2ncccn2)n[nH]1 [Compound 566, 4-Bromo-2-(5-pyrimidin-2-yl-2H-[1,2,4]triazol-3-yl)-phenol] |  | 5.9 | 
3 | Oc1cc(OCc2ccccc2)ccc1-c1nc(-c2ccccn2)n[nH]1 [Compound 356, 5-Benzyloxy-2-(5-pyridin-2-yl-2H-[1,2,4]triazol-3-yl)-phenol] |  |  | > 19
4 | COc1ccc(-c2ccn(-c3ncccc3[N+](=O)[O-])n2)c(F)c1 [Compound 45, 2-[3-(2-Fluoro-4-methoxy-phenyl)-pyrazol-1-yl]-3-nitro-pyridine] | 5.8 |  | 
5 | COc1ccc(OCc2ccccc2)c(-c2ccnn2-c2ccccn2)c1 [Compound 83, 2-[5-(2-Benzvloxy-5-methoxy-phenyl)-pvrazol-1-yl]-pyridine] | 31 |  | 
6 | Oc1ccc(Br)cc1-c1nc(-c2ccc(C(F)(F)F)cn2)no1 [Compound 213] | 25 |  | 25
7 | CC(C)c1ccc(-c2nc(-c3ncccc3C(F)(F)F)n[nH]2)cc1 [Compound 548, 2-[5-(4-Isopropyl-phenyl)-1H-[1,2,4]triazol-3-yl]-3-trifluoromethyl-pyridine] |  | > 19 | 
8 | COc1ccc(F)c(-c2nc(-c3nccc4ccccc34)n[nH]2)c1 [Compound 383] |  |  | > 19
9 | COc1ccc(-c2nc(-c3ncccc3[N+](=O)[O-])no2)c(O)c1 [Compound 170, 5-Methoxy-2-[3-(3-nitro-pyridin-2-yl)-[1,2,4]oxadiazol-5-yl]-phenol] | 12 |  | 
10 | Cc1cccc(-c2n[nH]c(-c3cc(C(C)(C)C)ccc3O)n2)n1 [Compound 391, 4-tert-Butyl-2-[5-(6-methyl-pyridin-2-yl)-2H-[1,2,4]triazol-3-yl]-phenol] |  |  | > 19
11 | Cc1ccccc1-c1nnc(-c2c(Cl)cccc2Cl)o1 [Compound 316, 2-(2,6-Dichloro-phenyl)-5-o-tolyl-[1,3,4]oxadiazole] |  |  | > 32
12 | COc1ccc(-c2nc(-c3ccc(C(F)(F)F)cn3)n[nH]2)c(O)c1 [Compound 517, 5-Methoxy-2-[5-(5-trifluoromethyl-pyridin-2-yl)-2H-[1,2,4]triazol-3-yl]-phenol] |  | > 19 | 
13 | Oc1ccc(Cl)cc1-c1nc(-c2ccc(C(F)(F)F)cn2)n[nH]1 [Compound 511, 4-Chloro-2-[5-(5-trifluoromethyl-pyridin-2-yl)-2H-[1,2,4]triazol-3-yl]-phenol] |  | > 19 | 
14 | COc1ccc(-c2nc(-c3cnccn3)n[nH]2)c(O)c1 [Compound 584, 5-Methoxy-2-(5-pyrazin-2-yl-2H-[1,2,4]triazol-3-yl)-phenol] |  | > 32 | 
15 | Cc1ccc(O)c(-c2nc(-c3ccc(N)cn3)no2)c1 [Compound 255, 2-[3-(5-Amino-pyridin-2-yl)-[1,2,4]oxadiazol-5-yl]-4-methyl-phenol] |  |  | 24
16 | Oc1ccc2ccccc2c1-c1nc(-c2ccccn2)n[nH]1 [Compound 482, 1-(5-Pyridin-2-yl-2H-[1,2,4]triazol-3-yl)-naphthalen-2-ol] |  | > 19 | 
17 | FC(F)(F)c1cccnc1-n1nccc1-c1cc(Br)ccc1OCc1ccccc1 [Compound 107, 2-[5-(2-Benzyloxy-5-bromo-phenyl)-pyrazol-1-yl]-3-trifluoromethyl-pyridine] | 2.6 |  | 
18 | Oc1cc(OCc2ccccc2)ccc1-c1nc(-c2cnccc2C(F)(F)F)n[nH]1 [Compound 417, 5-Benzyloxy-2-[5-(4-trifluoromethyl-pyridin-3-yl)-2H-[1,2,4]triazol-3-yl]-phenol] |  |  | > 19

Row | SMILES | EC50 [1] [µM] | EC50 [2] [µM] | EC50 [3] [µM]
19 | COc1cccc(-c2nc(-c3ncccc3C)no2)c1 [Compound 176, 2-[5-(3-Methoxy-phenyl)-[1,2,4]oxadiazol-3-yl]-3-methyl-pyridine] | 13 |  | 
20 | Oc1ccc(F)cc1-c1nc(-c2nccc3ccccc23)no1 [Compound 199, 4-Fluoro-2-(3-isoquinolin-1-yl-[1,2,4]oxadiazol-5-yl)-phenol] | 1.1 |  | 
21 | Oc1ccccc1-c1ccn(-c2ncccc2C(F)(F)F)n1 [Compound 42, 2-[1-(3-Trifluoromethyl-pyridin-2-yl)-1H-pyrazol-3-yl]-phenol] | 6 |  | 
22 | CCOc1ccc(-c2nc(-c3ncccc3-c3ccccc3)no2)c(O)c1 [Compound 234, 5-Ethoxy-2-[3-(3-phenyl-pyridin-2-yl)-[1,2,4]oxadiazol-5-yl]-phenol] | > 19 |  | > 19
23 | Oc1ccc(O)c(-c2nc(-c3ccc(C(F)(F)F)cn3)n[nH]2)c1 [Compound 522, 4-Hydroxy-2-[5-(5-trifluoromethyl-pyridin-2-yl)-2H-[1,2,4]triazol-3-yl]-phenol] |  | > 19 | 
24 | Oc1ccc2ccccc2c1-c1nnc(-c2c(Cl)cccc2Cl)o1 [Compound 310, 1-[5-(2,6-Dichloro-phenyl)-[1,3,4]oxadiazol-2-yl]-naphthalen-2-ol] |  |  | 4.4
25 | Oc1ccc(Br)cc1-c1nc(-c2ncccc2C(F)(F)F)n[nH]1 [Compound 539, 4-Bromo-2-[5-(3-trifluoromethyl-pyridin-2-yl)-2H-[1,2,4]triazol-3-yl]-phenol] |  | 0.35 | 
26 | Fc1cc(-c2nc(-c3ncccc3Br)n[nH]2)ccc1-c1ccccc1 [Compound 491, 3-Bromo-2-[5-(2-Fluoro-biphenyl-4-yl)-1H-[1,2,4]triazol-3-yl]-pyridine] |  | 2.3 | 
27 | Clc1ccccc1-c1nc(-c2ccccn2)n[nH]1 [Compound 472, 2-[5-(2-Chloro-phenyl)-1H-[l,2,4]triazol-3-yl]-pyridine] |  | > 32 | 
28 | COc1ccc(O)c(-c2nc(-c3ncccc3C)nn2C)c1 [Compound 609, 4-Methoxy-2-[2-methyl-5-(3-methyl-pyridin-2-yl)-2H-[1,2,4]triazol-3-yl]-phenol] |  | 17 | 
29 | Cn1nc(-c2ccccn2)nc1-c1cc(Cl)cc(Br)c1O [Compound 627, 6-Bromo-4-Chloro-2-(2-methyl-5-pyridin-2-yl-2H-[1,2,4]triazol-3-yl)-phenol] |  | 2.5 | 
30 | COc1ccc2ccccc2c1-c1nc(-c2ncccc2[N+](=O)[O-])no1 [Compound 169] | > 19 |  | 
31 | COc1ccc(O)c(-c2nc(-c3ccccn3)n[nH]2)c1 [Compound 360, 4-Methoxy-2-(5-pyridin-2-yl-2H-[1,2,4]triazol-3-yl)-phenol] |  |  | 5.4
32 | COc1ccc(O)c(-c2ccnn2Cc2ccc3ccccc3n2)c1 [Compound 109, 4-Methoxy-2-(2-quinolin-2-ylmethyl-2H-pyrazol-3-yl)-phenol] | > 32 |  | 
33 | c1ccc(-c2ncn(-c3ccccn3)n2)nc1 [Compound 639] |  | > 32 | 
34 | COc1ccc(O)c(-c2ncn(-c3ncccc3C)n2)c1 [Compound 637, 4-Methoxy-2-[1-(3-methyl-pyridin-2-yl)-1H-[1,2,4]triazol-3-yl]-phenol] |  | 12 | 
35 | COc1cc(O)c(-c2nc(-c3ncccc3-c3ccccc3)no2)c(OC)c1 [Compound 233, 3,5-Dimethoxy-2-[3-(3-phenyl-pyridin-2-yl)-[1 ,2,4]oxadiazol-5-yl]-phenol] | 2.1 |  | 2.1
36 | CCOC(=O)c1cc(-c2ccc(OC)cc2)nn1-c1ncccc1C(F)(F)F [Compound 56, 5-(4-Methoxy-phenyl)-2-(3-trifluoromethyl-pyridin-2-yl)-2H-pyrazole-3-carboxylic acid ethyl ester] | > 32 |  | 
